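Tested at 5 concentrations; 48 h exposure; 96-well plates; endpoints linearly interpolated, else capped at highest concentration. The concentration for 50% growth inhibition is given as GI50.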 Calls of active or inactive are those of the source. Rule as the data show it: active = GI50 up to about 1.1 µM and inactive = higher.

Test systems include 786-0; A549; CAKI-1; DU-145; HCT-116; HOP-62; HOP-92; M14; MCF7; NCI-H460; SF-268; SF-295; SK-MEL-2; SK-MEL-5; SK-OV-3; SN12C; SR; T47D; UO-31.
What all share (assay): NCI anticancer screen, dose series, 48 h

For the molecule `O=C(c1ccccc1)c1nc2ccc(Cl)cc2cc1C(Br)Br`, the GI50 with 786-0 was 0.17 µM (active); in the experiment on A549, 1.44 µM (inactive); with CAKI-1, 0.552 µM (active); in the experiment with DU-145, 1.03 µM (active); in the experiment on HCT-116, 0.108 µM (active); in the experiment on HOP-62, 0.641 µM (active). Further, the GI50 in the experiment on HOP-92 is 0.527 µM (active); with M14, 1.72 µM (inactive); in the experiment on MCF7 it was 0.314 µM (active); in the experiment with NCI-H460, 0.281 µM (active); with SF-268, 0.384 µM (active); in the experiment with SF-295, 0.261 µM (active). Also, the GI50 in the experiment with SK-MEL-2 is 0.45 µM (active); in the experiment with SK-MEL-5, 0.692 µM (active); with SK-OV-3, 0.605 µM (active); with SN12C it was 0.252 µM (active); in the experiment with SR, 1.68 µM (inactive); with T47D, 0.2 µM (active). In the experiment on UO-31, the GI50 was 0.385 µM (active).
`COc1ccc([C@@]2(O)c3c(ccc(O)c3OC)[C@H]2OC)c(OC)c1`: the GI50 in the experiment on 786-0 is 41.8 µM (inactive); in the experiment with A549, 85.1 µM (inactive); in the experiment on CAKI-1 it was 35.7 µM (inactive); in the experiment with HCT-116, 33.5 µM (inactive); in the experiment on HOP-62 it was > 100 µM (inactive); in the experiment on HOP-92, 53.6 µM (inactive). The GI50 was > 100 µM (inactive) in the experiment with M14; > 100 µM (inactive) in the experiment with NCI-H460; 75.9 µM (inactive) in the experiment with SF-268; 29.2 µM (inactive) in the experiment on SF-295; 63.4 µM (inactive) with SK-MEL-2; 48.6 µM (inactive) in the experiment on SK-MEL-5. The GI50 was 28.6 µM (inactive) in the experiment on SK-OV-3, 71.8 µM (inactive) in the experiment on SN12C, 35.6 µM (inactive) in the experiment on SR and 69.3 µM (inactive) in the experiment with UO-31.
Regarding `CCN(CC)CCCN1CCc2c([nH]c3ccccc23)C1c1cccnc1` (centres undefined), the GI50 in the experiment on 786-0 is > 100 µM (inactive); in the experiment with A549, > 100 µM (inactive); in the experiment on CAKI-1 it was > 100 µM (inactive); with HCT-116, > 100 µM (inactive); in the experiment with HOP-62, > 100 µM (inactive); in the experiment with HOP-92 it was 29.2 µM (inactive). Also, the GI50 is 61.2 µM (inactive) in the experiment on M14; > 100 µM (inactive) with NCI-H460; > 100 µM (inactive) in the experiment with SF-295; > 100 µM (inactive) in the experiment with SK-MEL-2; 59.8 µM (inactive) in the experiment on SK-MEL-5; > 100 µM (inactive) in the experiment on SK-OV-3. Further, the GI50 in the experiment with SN12C was > 100 µM (inactive); with SR, > 100 µM (inactive); in the experiment with UO-31, 83.9 µM (inactive).
With `COc1ccccc1/C=C1\CCC(CNc2ccc(Cl)cc2)C1=O` (centres undefined), the GI50 in the experiment on 786-0 was 10.5 µM (inactive); in the experiment with A549, 5.16 µM (inactive); in the experiment with CAKI-1, 2.42 µM (inactive); with HCT-116, 4.38 µM (inactive); in the experiment with HOP-62, 7.76 µM (inactive); in the experiment with HOP-92, 16.4 µM (inactive). Also, the GI50 is 0.242 µM (active) in the experiment with M14; 1.43 µM (inactive) in the experiment on NCI-H460; 4.86 µM (inactive) with SF-268; 2.49 µM (inactive) in the experiment with SF-295; 13.2 µM (inactive) in the experiment on SK-MEL-2; 3.16 µM (inactive) in the experiment on SK-MEL-5. The GI50 in the experiment on SK-OV-3 was 1.73 µM (inactive); in the experiment with SN12C, 13.7 µM (inactive); in the experiment with SR it was 1.76 µM (inactive); with UO-31, 3.18 µM (inactive).
As for `COc1ccc(N2C(=O)C(N3C(=O)C=CC3=O)C2C=O)cc1` (centres undefined), the GI50 in the experiment on 786-0, with A549, in the experiment with CAKI-1, with HCT-116, in the experiment on HOP-62 and in the experiment with HOP-92 was > 100 µM (inactive) throughout. Besides, the GI50 with M14, in the experiment with NCI-H460, in the experiment on SF-268, in the experiment with SF-295, in the experiment with SK-MEL-2 and in the experiment on SK-MEL-5 was > 100 µM (inactive) each time. Besides, the GI50 in the experiment on SK-OV-3, in the experiment with SN12C, in the experiment with SR and with UO-31 was > 100 µM (inactive) throughout.
With `Cc1ccc(C)c(N2C/C(=N\NC(=O)CC#N)C(c3nc4ccccc4s3)C(=O)C2=O)c1` (centres undefined), the GI50 in the experiment with 786-0, in the experiment on A549, with CAKI-1, in the experiment with HCT-116, with HOP-62 and in the experiment on HOP-92 was > 100 µM (inactive) in each case. Further, the GI50 in the experiment with M14, in the experiment on NCI-H460, with SF-268, with SF-295, in the experiment on SK-MEL-2 and in the experiment with SK-MEL-5 was > 100 µM (inactive) throughout. The GI50 in the experiment on SK-OV-3, in the experiment on SN12C, in the experiment on SR and with UO-31 was > 100 µM (inactive) throughout.
Consider `COc1cc(C)c2c(c1)CN1CN2Cc2cc(OC)cc(C)c21`, for which the GI50 was 74.1 µM (inactive) with 786-0; 96.4 µM (inactive) in the experiment with A549; > 100 µM (inactive) in the experiment with CAKI-1; 47.9 µM (inactive) with HCT-116; 65.6 µM (inactive) in the experiment on HOP-62; 35.3 µM (inactive) with HOP-92. Also, the GI50 in the experiment on M14 was > 100 µM (inactive); with NCI-H460 it was 64.6 µM (inactive); in the experiment with SF-268, 48.1 µM (inactive); in the experiment with SF-295 it was 52.4 µM (inactive); in the experiment on SK-MEL-2, 45.6 µM (inactive); with SK-MEL-5, 3.66 µM (inactive). For the same molecule, the GI50 with SK-OV-3 is > 100 µM (inactive); in the experiment on SN12C, 46.3 µM (inactive); with SR, 36.1 µM (inactive); in the experiment with UO-31 it was 33.1 µM (inactive).
For the molecule `O=C(O)CCC(NC(=O)c1ccccc1)C(=O)O` (centres undefined), the GI50 was > 100 µM (inactive) in the experiment with 786-0; > 100 µM (inactive) in the experiment with A549; > 100 µM (inactive) in the experiment on CAKI-1; 58.7 µM (inactive) in the experiment with HCT-116; > 100 µM (inactive) with HOP-62; > 100 µM (inactive) in the experiment on HOP-92. In addition, the GI50 with M14, in the experiment on NCI-H460, with SF-268, in the experiment with SF-295, in the experiment on SK-MEL-2 and in the experiment with SK-MEL-5 was > 100 µM (inactive) throughout. The GI50 with SK-OV-3, in the experiment on SN12C, in the experiment with SR and in the experiment on UO-31 was > 100 µM (inactive) in each case.
As for `COC(=O)C1C2CC3C(OC(=O)C31)C2OC(=O)[C@](OC)(c1ccccc1)C(F)(F)F` (some centres undefined), the GI50 in the experiment with 786-0, in the experiment on A549, with CAKI-1, with HCT-116, in the experiment with HOP-62 and with HOP-92 was > 100 µM (inactive) in each case. In addition, the GI50 in the experiment with M14, in the experiment with NCI-H460, in the experiment with SF-268, in the experiment with SK-MEL-2, with SK-MEL-5 and in the experiment on SK-OV-3 was > 100 µM (inactive) in each case. The GI50 in the experiment with SN12C, in the experiment with SR and in the experiment with UO-31 was > 100 µM (inactive) throughout.
For the molecule `COC(=O)C(CC1=C(O)Nc2ccccc2N1)/C(=N/NC(N)=O)C(=O)Nc1ccccc1C` (centres undefined), the GI50 in the experiment on 786-0 was > 100 µM (inactive); in the experiment on A549, > 100 µM (inactive); with CAKI-1, > 100 µM (inactive); in the experiment with HCT-116 it was 18.2 µM (inactive); in the experiment on HOP-62 it was > 100 µM (inactive); with HOP-92, 44 µM (inactive). Further, the GI50 with M14 is > 100 µM (inactive); in the experiment on NCI-H460, 28.8 µM (inactive); in the experiment on SF-268, 16.5 µM (inactive); in the experiment with SF-295 it was > 100 µM (inactive); in the experiment on SK-MEL-2, > 100 µM (inactive); with SK-MEL-5, 93.5 µM (inactive). For the same molecule, the GI50 in the experiment with SK-OV-3 is > 100 µM (inactive); with SN12C, > 100 µM (inactive); with SR it was 20.8 µM (inactive); in the experiment on UO-31, > 100 µM (inactive).
In the case of `O=[N+]([O-])c1ccc(/C=C(/c2ccc([N+](=O)[O-])o2)S(=O)(=O)c2ccccc2)o1`, the GI50 in the experiment with 786-0 was 3.17 µM (inactive); in the experiment on A549, 18.7 µM (inactive); with CAKI-1, 18.5 µM (inactive); in the experiment on DU-145 it was 14.8 µM (inactive); with HCT-116, 1.71 µM (inactive); with HOP-62, 17.8 µM (inactive). For the same molecule, the GI50 in the experiment with HOP-92 was 12 µM (inactive); with M14, 11.1 µM (inactive); in the experiment on MCF7, 11.8 µM (inactive); with NCI-H460, 21.2 µM (inactive); in the experiment on SF-268, 15.6 µM (inactive); in the experiment on SF-295 it was 18.6 µM (inactive). Besides, the GI50 is 17.4 µM (inactive) in the experiment on SK-MEL-2; 11.9 µM (inactive) in the experiment with SK-MEL-5; 29.4 µM (inactive) with SK-OV-3; 1.02 µM (active) in the experiment on SR; 11.4 µM (inactive) with T47D; 4.34 µM (inactive) with UO-31.
Consider `CC/C(C)=C1\CCC(CN2CCOCC2)C1=O` (centres undefined), for which the GI50 in the experiment with 786-0 is 10.1 µM (inactive); with A549, 21.2 µM (inactive); in the experiment with CAKI-1, 2.47 µM (inactive); in the experiment with HCT-116, 13.9 µM (inactive); in the experiment with HOP-62, 23.1 µM (inactive); in the experiment with HOP-92 it was 14.6 µM (inactive). Moreover, the GI50 with M14 was 17.3 µM (inactive); with NCI-H460, 17.8 µM (inactive); with SF-268, 11.5 µM (inactive); in the experiment with SF-295 it was > 100 µM (inactive); in the experiment with SK-MEL-2 it was 17.8 µM (inactive); with SK-MEL-5 it was 28.5 µM (inactive). For the same molecule, the GI50 was 8.69 µM (inactive) in the experiment on SN12C, 11.2 µM (inactive) in the experiment on SR and 21.6 µM (inactive) in the experiment with UO-31.

The values above are taken from ChEMBL document CHEMBL1201862, “PubChem BioAssay data set” (2004).
